For orientation: melting point means the temperature, or range, at which the solid turns liquid.

We go through one compound from patent US6919380B2, “Derivatives of C2-substituted indan-1-ol systems for the prophylaxis or treatment of obesity” (Aventis Pharma Deutschland GmbH., priority 2001, dated 2005).

Data set [1] deals with female NMRI mice. Put plainly: Anorectic action: cumulative evaporated milk consumption after removal of feed for 24 hours. It counts as in vivo, mouse. To be noted: dose 10 mg/kg (ip or po, not specified). The method, then: The activity of the compounds of the formula I was assayed as follows: […]
The anorectic action was tested on female NMRI mice. After removal of feed for 24 hours, the preparation to be tested was administered intraperitoneally (ip) or by gavage (po). The animals were housed singly and, with free access to drinking water, they were offered evaporated milk 30 minutes after administration of the preparation. The consumption of evaporated milk was determined and the general behavior of the animals was monitored every half an hour for 7 hours. The measured milk consumption was compared to that of vehicle-treated control animals.

`CC(=O)OC1c2ccc(Cl)cc2CC1S(C)(=O)=O` (stereo not drawn) [Example 1, 1-Acetoxy-5-chloro-2-methylsulfonylindane] registered a melting point of 136 °C. For the same compound, in data set [1] (compared with control animals), the “Reduction in cumulative milk consumption as % of the control” value is given as 81%. Also, in data set [1] (milk offered 30 minutes after administration, monitored for 7 hours), the “cumulative milk consumption by treated animals” value is recorded as 5/0.28 ml.
